Experimental data: publication PMC11073699, “Odorant receptors for floral- and plant-derived volatiles in the yellow fever mosquito, Aedes aegypti (Diptera: Culicidae)” (PLOS ONE, 2024)
Values joined by “and” are separate entries in the source; they are usually repeats but may differ in a detail not shown here. Equal entries are not always repeated.

Legend:
Assay type in all cases: cell-based
[1] = molecular target: T1, AaegOR31 (Aedes aegypti, UniProt Q16JU0); test: Two-electrode voltage clamp of Xenopus laevis oocytes expressing AaegOR31/Orco (blends, unitary compounds, concentration-response); settings: AaegOR31, compounds of blend Alcohols 1
T1 sequence (Q16JU0 1-381): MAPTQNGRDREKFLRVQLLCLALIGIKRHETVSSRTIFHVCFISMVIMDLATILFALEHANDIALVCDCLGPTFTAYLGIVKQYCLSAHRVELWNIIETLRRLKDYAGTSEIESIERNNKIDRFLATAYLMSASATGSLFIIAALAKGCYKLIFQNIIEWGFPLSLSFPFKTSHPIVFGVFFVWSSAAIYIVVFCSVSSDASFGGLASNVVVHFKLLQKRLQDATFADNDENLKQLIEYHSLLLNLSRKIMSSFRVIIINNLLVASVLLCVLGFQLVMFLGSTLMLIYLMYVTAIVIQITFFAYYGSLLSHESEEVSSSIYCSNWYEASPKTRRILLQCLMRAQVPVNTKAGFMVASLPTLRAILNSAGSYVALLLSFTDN
T1 sequence (Q178U6 1-478 partner): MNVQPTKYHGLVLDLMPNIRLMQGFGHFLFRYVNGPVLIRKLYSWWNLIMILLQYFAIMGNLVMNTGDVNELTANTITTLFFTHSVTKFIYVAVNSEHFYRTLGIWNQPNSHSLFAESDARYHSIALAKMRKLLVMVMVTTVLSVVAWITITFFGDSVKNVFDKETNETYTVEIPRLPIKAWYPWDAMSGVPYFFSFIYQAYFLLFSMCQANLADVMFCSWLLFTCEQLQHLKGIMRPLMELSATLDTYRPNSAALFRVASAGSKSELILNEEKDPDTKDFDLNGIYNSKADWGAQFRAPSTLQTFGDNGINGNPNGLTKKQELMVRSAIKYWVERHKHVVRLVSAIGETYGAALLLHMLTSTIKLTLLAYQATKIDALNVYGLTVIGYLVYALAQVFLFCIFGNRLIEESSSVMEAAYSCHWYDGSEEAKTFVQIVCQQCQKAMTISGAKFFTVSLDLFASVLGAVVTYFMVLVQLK
Source text: (§1) The coding regions of ten AaegOR genes of interest (S3 File) and AaegOrco were synthesized by Twist Bioscience (San Francisco, CA, USA) and cloned into the pENTR plasmid. The Gateway LR directional cloning system (Invitrogen Corp., Carlsbad, CA, USA) was utilized to subclone AaegOR coding regions into the pSP64t-RFA oocyte expression plasmid. Plasmids were purified using the GeneJet Plasmid Miniprep Kit (ThermoFisher Scientific, Waltham, MA, USA). Purified plasmids were sequenced in both directions to confirm coding regions.
(§2) Chemical compounds (S6 File) used in the deorphanization of AaegORs were purchased from Acros Organics (Morris, NJ, USA), Alfa Aesar (Ward Hill, MA, USA), and ThermoFisher Scientific (Waltham, MA, USA) at the highest purity available. Compounds were stored as 1M stocks in 100% DMSO. Serial dilutions of each compound were prepared in 10% DMSO and blended by chemical class.
(§3) pSP64t-RFA: AaegOR clones were linearized using Xbal, and cRNAs were synthesized using the mMESSAGE mMACHINE ® SP6 kit (Life Technologies, Carlsbad, CA, USA). Xenopus laevis stage V-VII oocytes purchased from Xenopus1 (Dexter, MI, USA) were stored at 18°C in Incubation medium (ND96 96 with 5% dialyzed horse serum, 50μg/mL gentamycin, 100μg/mL streptomycin, 100μg/mL penicillin, and 550μg/mL sodium pyruvate). 30nL of cRNA was injected into multiple oocytes using a microinjection syringe pump (World Precision Instruments, Sarasota, FL, USA) maintained at 18°C for 48–72 hrs. Odorant blends were perfused across individual oocytes for 10–15 seconds, held at a resting membrane potential of -80 mV using an OC-725C oocyte clamp (Warner Instruments, LLC, Hamden, CT, USA). Induced currents were measured indirectly using the two-electrode voltage clamp technique (TEVC). Following each stimulus, currents were allowed to return to baseline before further stimulation. Data was captured using the Digidata 1550 B digitizer and PClamp10 software (Molecular Devices, San Jose, CA, USA). Concentration-response curves were generated by perfusing unitary odorants over oocytes at increasing concentrations from [10^-3M] to [10^-9M]. Data were analyzed using GraphPad Prism 8 (GraphPad Software Inc., La Jolla, CA, USA). At least two biological replicates were conducted at each concentration and for each compound. Data for at least seven oocytes responding to each compound was analyzed (S7 File).

[2] = molecular target: T2, AaegOR13 (Aedes aegypti, UniProt Q16Z13); test: Two-electrode voltage clamp of Xenopus laevis oocytes expressing AaegOR13/Orco (blends, unitary compounds, concentration-response); settings: unitary compounds
T2 sequence (Q16Z13 1-389): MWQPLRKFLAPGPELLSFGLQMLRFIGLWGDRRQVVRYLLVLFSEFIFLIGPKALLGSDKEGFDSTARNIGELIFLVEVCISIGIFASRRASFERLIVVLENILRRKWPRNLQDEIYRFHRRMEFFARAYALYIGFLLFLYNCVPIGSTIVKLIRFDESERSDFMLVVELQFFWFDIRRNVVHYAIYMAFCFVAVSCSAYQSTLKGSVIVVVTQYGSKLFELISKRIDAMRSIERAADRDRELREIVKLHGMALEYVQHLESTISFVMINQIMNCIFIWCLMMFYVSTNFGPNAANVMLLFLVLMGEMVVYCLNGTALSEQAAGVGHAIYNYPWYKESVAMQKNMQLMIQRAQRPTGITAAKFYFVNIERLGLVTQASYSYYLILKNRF
T2 sequence (Q178U6 1-478 partner): T1 sequence (Q178U6 1-478 partner)
Source text: as §1, §2, §3

[3] = molecular target: T3, AaegOR11 (Aedes aegypti, UniProt Q16PN4); test: Two-electrode voltage clamp of Xenopus laevis oocytes expressing AaegOR11/Orco (blends, unitary compounds, concentration-response); settings: for Normalized response, Average, unitary compounds of blend Terpenes 3: average over oocytes (9; fenchones 6); for Normalized response, unitary compounds of blend Terpenes 3: individual oocytes, normalized to cis-Decahydro-1-napthol = 100; for Raw data (Responses in nA), unitary compounds of blend Terpenes 3: individual oocytes 1-9 (replicates)
T3 sequence (Q16PN4 1-420): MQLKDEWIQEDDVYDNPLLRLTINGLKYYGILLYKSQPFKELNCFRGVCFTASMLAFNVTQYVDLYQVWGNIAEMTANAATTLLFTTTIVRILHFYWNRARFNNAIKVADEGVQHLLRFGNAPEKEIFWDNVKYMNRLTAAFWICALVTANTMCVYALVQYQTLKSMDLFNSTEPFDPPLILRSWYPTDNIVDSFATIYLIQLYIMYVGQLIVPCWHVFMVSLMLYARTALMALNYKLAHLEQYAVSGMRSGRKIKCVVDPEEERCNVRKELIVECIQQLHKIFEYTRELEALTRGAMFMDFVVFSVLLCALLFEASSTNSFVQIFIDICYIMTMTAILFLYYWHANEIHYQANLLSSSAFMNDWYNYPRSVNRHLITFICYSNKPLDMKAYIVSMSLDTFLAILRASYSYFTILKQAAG
T3 sequence (Q178U6 1-478 partner): T1 sequence (Q178U6 1-478 partner)
Source text: as §1, §2, §3

[4] = individual oocytes (Oocyte 1-8)

| Compound | Raw Data (Responses in nA), Alcohols 1 unitary compounds [1, 4] | Normalized response, Average, unitary compounds of blend Terpenes 3 [3] | Normalized response, unitary compounds of blend Terpenes 3 [3] | other results |
| --- | --- | --- | --- | --- |
| CC1CCC(C(C)C)C(O)C1 (racemic) [DL-menthol] | 5.0 nA (2×) and 0.0 nA (6×) | – | – | Raw data (Responses in nA), unitary compounds of Indoles 1, Alcohols 1, Alcohols 3 ([2]; individual oocytes 1-7): 0.0 nA (4×) and 30.0 nA and 10.0 nA and 5.0 nA |
| CC1(C)C(=O)[C@@]2(C)CCC1C2 (single isomer, unassigned; (+)) [(+) Fenchone] | – | 36.7 | 40.0 and 50.0 (2×) and 30.0 and 25.0 (2×) | Raw data (Responses in nA), unitary compounds, additional oocytes ([3]; six further oocytes in columns without head (fenchone comparison with cis-Decahydro-1-napthol)): 10 nA |
| CC1(C)C(=O)[C@]2(C)CCC1C2 (single isomer, unassigned; (-)) [(-) Fenchone] | – | 23.3 | 20.0 and 25.0 (2×) and 10.0 (2×) and 50.0 | – |
| CC(C)O [2-propanol] | 10.0 nA and 20.0 nA and 15.0 nA and 0.0 nA (5×) | – | – | Normalized response, Average, Alcohols 1 unitary compounds ([1]; average of 8 oocytes): 10.7; Normalized response, Alcohols 1 unitary compounds ([1]; individual oocytes (Oocyte 1-8), normalized to the strongest compound per oocyte): 5.9 and 50.0 and 30.0 and 0.0 (5×); Normalized response, unitary compounds, Average ([2]; average of oocytes 1-7): 0.0; Raw data (Responses in nA), unitary compounds of Indoles 1, Alcohols 1, Alcohols 3 ([2]; individual oocytes 1-7): 0.0 nA; Normalized response, unitary compounds of Indoles 1, Alcohols 1, Alcohols 3 ([2]; normalized per oocyte, individual oocytes 1-7): 0.0 |
| CC(C)(C)c1ccc(O)cc1 [4-tert butylphenol] | 0.0 nA (7×) and 10.0 nA | – | – | – |
| CC1(C)[C@H]2CC[C@]1(C)[C@H](O)C2 [(-)-Borneol] | – | – | – | Raw data (Responses in nA), unitary compounds of blend Terpenes 3 [3]: 0 nA |
| CCCCC/C=C\C=C\C(=O)OCC [Ethyl-2-trans-4-cis-decadienoate] | – | 0.0 | 0.0 | Raw data (Responses in nA), unitary compounds of blend Terpenes 3 [3]: 0 nA |
